This is an account of results in US11214565B2, “Compound, compositions, and methods” (Denali Therapeutics Inc., priority 2015, dated 2022).

Bounds are passed on as bounds.

LRRK2 G2019S enzyme, sequence (Q5S007 whole entry G2019S): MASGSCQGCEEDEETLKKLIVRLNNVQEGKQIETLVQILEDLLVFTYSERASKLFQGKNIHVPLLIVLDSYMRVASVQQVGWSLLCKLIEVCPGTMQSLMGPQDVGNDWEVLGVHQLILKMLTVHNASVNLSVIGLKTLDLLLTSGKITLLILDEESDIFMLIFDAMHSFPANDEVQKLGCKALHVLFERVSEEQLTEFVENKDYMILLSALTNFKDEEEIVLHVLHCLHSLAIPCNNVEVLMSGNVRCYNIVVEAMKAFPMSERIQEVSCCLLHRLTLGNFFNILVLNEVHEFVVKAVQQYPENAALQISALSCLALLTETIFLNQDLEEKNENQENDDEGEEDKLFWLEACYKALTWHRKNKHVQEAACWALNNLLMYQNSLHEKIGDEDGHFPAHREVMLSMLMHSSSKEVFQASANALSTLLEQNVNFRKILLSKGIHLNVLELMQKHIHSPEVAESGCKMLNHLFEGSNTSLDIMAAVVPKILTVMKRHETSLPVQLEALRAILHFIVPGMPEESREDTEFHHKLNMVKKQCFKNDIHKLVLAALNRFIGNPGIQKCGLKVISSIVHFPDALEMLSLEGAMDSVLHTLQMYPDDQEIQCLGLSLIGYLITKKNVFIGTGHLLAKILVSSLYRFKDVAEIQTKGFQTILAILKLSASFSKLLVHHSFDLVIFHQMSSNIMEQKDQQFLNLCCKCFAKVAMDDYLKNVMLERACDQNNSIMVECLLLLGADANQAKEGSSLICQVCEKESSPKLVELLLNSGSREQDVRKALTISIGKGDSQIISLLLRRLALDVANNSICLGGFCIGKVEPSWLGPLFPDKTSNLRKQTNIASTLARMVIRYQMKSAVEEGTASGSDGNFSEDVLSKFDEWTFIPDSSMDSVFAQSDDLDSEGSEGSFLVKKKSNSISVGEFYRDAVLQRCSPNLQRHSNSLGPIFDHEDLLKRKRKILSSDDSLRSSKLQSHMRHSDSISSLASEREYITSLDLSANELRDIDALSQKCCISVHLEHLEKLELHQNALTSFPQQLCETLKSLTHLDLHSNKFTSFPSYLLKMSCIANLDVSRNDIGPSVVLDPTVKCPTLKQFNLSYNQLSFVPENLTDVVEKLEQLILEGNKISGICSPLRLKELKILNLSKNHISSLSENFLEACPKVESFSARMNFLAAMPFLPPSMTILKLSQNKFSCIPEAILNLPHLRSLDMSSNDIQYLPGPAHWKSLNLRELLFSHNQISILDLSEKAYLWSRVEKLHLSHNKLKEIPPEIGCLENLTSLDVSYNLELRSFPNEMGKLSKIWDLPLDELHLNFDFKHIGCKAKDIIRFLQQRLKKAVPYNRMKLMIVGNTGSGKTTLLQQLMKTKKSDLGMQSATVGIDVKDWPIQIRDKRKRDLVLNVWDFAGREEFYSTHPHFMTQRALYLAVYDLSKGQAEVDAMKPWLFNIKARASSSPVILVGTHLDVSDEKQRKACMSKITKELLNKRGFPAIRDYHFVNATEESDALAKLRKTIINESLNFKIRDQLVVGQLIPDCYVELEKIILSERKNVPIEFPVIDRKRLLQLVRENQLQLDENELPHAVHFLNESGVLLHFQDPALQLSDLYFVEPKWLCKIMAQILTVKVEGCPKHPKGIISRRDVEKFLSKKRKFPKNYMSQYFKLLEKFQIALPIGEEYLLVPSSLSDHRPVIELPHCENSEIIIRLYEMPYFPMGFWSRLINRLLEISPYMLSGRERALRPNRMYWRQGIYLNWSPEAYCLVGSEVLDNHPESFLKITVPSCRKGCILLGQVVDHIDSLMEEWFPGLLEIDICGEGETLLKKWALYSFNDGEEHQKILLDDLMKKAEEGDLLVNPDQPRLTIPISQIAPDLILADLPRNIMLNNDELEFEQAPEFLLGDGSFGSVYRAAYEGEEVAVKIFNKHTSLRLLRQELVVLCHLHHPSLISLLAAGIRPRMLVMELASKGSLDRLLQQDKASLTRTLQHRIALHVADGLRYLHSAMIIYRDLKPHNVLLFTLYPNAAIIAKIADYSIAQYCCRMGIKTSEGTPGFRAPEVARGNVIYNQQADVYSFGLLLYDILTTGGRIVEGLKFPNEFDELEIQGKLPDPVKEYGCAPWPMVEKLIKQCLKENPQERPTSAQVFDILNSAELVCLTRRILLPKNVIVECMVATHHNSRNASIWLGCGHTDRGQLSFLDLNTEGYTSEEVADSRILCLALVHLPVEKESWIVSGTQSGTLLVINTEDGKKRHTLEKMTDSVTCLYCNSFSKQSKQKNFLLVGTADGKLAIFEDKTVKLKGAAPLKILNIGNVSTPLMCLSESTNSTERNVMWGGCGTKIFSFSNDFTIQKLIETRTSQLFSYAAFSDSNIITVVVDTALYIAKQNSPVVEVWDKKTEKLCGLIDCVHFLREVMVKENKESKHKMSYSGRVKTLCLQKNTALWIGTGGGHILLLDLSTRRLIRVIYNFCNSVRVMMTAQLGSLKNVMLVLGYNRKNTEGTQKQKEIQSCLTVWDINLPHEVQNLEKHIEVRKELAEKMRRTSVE

The first experiment concerns the target LRRK2 G2019S enzyme (Homo sapiens (Human), UniProt Q5S007, G2019S). The experiment can be described thus: LRRK2 G2019S TR-FRET biochemical kinase assay (LRRKtide substrate). As to conditions: Table A-2; 5 nM LRRK2, 134 μM ATP, 60 minute reaction, 23° C. The method, boiled down: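 5 nM LRRK2 G2019S preincubated 20 min with LRRKtide and compound (3.162-fold dilution series) in Tris pH 7.5, MgCl2, EGTA, Brij-35, DTT, then reacted 60 min at 23 °C with 134 μM ATP. EDTA-stopped; pLRRKtide antibody detection, TR-FRET read at 340 nm excitation, 520/490–495 nm emission.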
Molecule `Cc1c(Nc2ncc(C(F)(F)F)c(C3CC3)n2)cnn1[C@@H]1CCc2cn[nH]c21` [Compounds A-84] came in with an IC50 of under 30 nM. `Cc1nn([C@@H]2CCNC2=O)cc1Nc1ncc(C(F)(F)F)c(C2CC2)n1` [Compounds A-85]: the IC50 is under 30 nM. In turn, `Cc1nn([C@H]2CCNC2=O)cc1Nc1ncc(C(F)(F)F)c(C2CC2)n1` [Compounds A-86] registered a half-maximal inhibitory concentration (IC50) of under 30 nM. Same read-out and setting: for `Cc1nn([C@@H]2CCc3cn[nH]c32)cc1Nc1ncc(C(F)(F)F)c(C2CC2)n1` [Compounds A-89] the value was under 30 nM; for `Cc1nn([C@H]2CCc3cn[nH]c32)cc1Nc1ncc(C(F)(F)F)c(C2CC2)n1` [Compounds A-90], under 30 nM; for `Cc1c(Nc2ncc(C(F)(F)F)c(C3CC3)n2)cnn1[C@H]1CCNC1=O` [Compounds A-91], 30 to 60 nM. Consider `Cc1c(Nc2ncc(C(F)(F)F)c(C3CC3)n2)cnn1[C@H]1CCc2cn[nH]c21` [Compounds A-92], for which the IC50 was under 30 nM. On to `Cc1nn([C@@]2(C)CCNC2=O)cc1Nc1ncc(C(F)(F)F)c(C2CC2)n1` [Compounds A-94], for which the 50% inhibitory concentration (IC50) is under 30 nM. The same measure, in the same setting: as for `Cc1nn([C@]2(C)CCNC2=O)cc1Nc1ncc(C(F)(F)F)c(C2CC2)n1` [Compounds A-95], the figure is under 30 nM. For the molecule `Cc1nn([C@@](C)(C(N)=O)C(F)F)cc1Nc1ncc(C(F)(F)F)c(C2CC2)n1` [Compounds A-96], the IC50 is under 30 nM.

In turn, `Cc1nn([C@](C)(C(N)=O)C(F)F)cc1Nc1ncc(C(F)(F)F)c(C2CC2)n1` [Compounds A-97] gave an IC50 of 30 to 60 nM.

The same experiment, now with this note: Table D-4; 5 nM LRRK2, 134 μM ATP, 60 minute reaction, 23° C.
`CCNc1nc(Nc2cnn([C@H]3C[C@@H](n4nccn4)C3)c2C)ncc1C(F)(F)F` [Compound D-148] gave an IC50 of under 30 nM. Molecule `CNc1nc(Nc2cnn(C3CCn4cncc43)c2C)ncc1C(F)(F)F` [Compound D-150] displayed an IC50 of under 30 nM. Same read-out and setting: as for `CCNc1nc(Nc2cnn([C@H]3C[C@H](N4CCOCC4)C3)c2C)ncc1C(F)(F)F` [Compound D-153], the figure is under 30 nM.

`CCNc1nc(Nc2cnn([C@H]3C[C@H](n4nccn4)C3)c2C)ncc1Cl` [Compound D-154]: the IC50 is under 30 nM. Still for that read-out and setting: for `CCNc1nc(Nc2cnn(C3(CC#N)CC3)c2C)ncc1C(F)(F)F` [Compound D-155] the value was under 30 nM; for `CNc1nc(Nc2cnn(C3(COC(F)F)CC3)c2C)ncc1C(F)(F)F` [Compound D-157], under 30 nM; for `CNc1nc(Nc2cnn(CC3(CC#N)CC3)c2C)ncc1C(F)(F)F` [Compound D-157a], under 30 nM. Molecule `CCNc1nc(Nc2cnn(CC3(CC#N)CC3)c2C)ncc1C(F)(F)F` [Compound D-158] displayed a half-maximal inhibitory concentration (IC50) of under 30 nM.

With `CNC(=O)C(F)(F)n1cc(Nc2ncc(C(F)(F)F)c(NC)n2)c(C)n1` [Compound D-159], the IC50 was under 30 nM. The molecule `CCNC(=O)C(F)(F)n1cc(Nc2ncc(C(F)(F)F)c(NC)n2)c(C)n1` [Compound D-160] registered an IC50 of under 30 nM. `CCNc1nc(Nc2cn(C(F)(F)C(=O)O)nc2C)ncc1C(F)(F)F` [Compound D-161] displayed a half-maximal inhibitory concentration (IC50) of under 30 nM. In turn, `CNc1nc(Nc2cnn([C@H]3C[C@H](n4nccn4)C3)c2C)ncc1C(F)(F)F` [Compound D-162] registered an IC50 of under 30 nM.

In turn, `CCNc1nc(Nc2cn(C(F)(F)C(N)=O)nc2Cl)ncc1C(F)(F)F` [Compound D-164] displayed a half-inhibitory concentration (IC50) of under 30 nM. In the case of `CNc1nc(Nc2cnn([C@H]3C[C@@H](n4cc(F)cn4)C3)c2C)ncc1C(F)(F)F` [Compound D-165], the half-inhibitory concentration (IC50) was under 30 nM. Molecule `CNc1nc(Nc2cn([C@H]3C[C@H](c4nncs4)C3)nc2C)ncc1C(F)(F)F` [Compound D-167] gave a concentration for half-maximal inhibition (IC50) of under 30 nM.

Molecule `CNc1nc(Nc2cnn([C@H]3C[C@H](c4nncs4)C3)c2C)ncc1C(F)(F)F` [Compound D-168] came in with a 50% inhibitory concentration (IC50) of under 30 nM.

For `CNc1nc(Nc2cnn(C3CCCn4ccnc43)c2C)ncc1C(F)(F)F` [Compound D-169], the IC50 is over 60 nM.

Take `COc1nc(Nc2cn(C3(C)CCn4ccnc43)nc2C)ncc1Br` [Compound D-178]: the 50% inhibitory concentration (IC50) is under 30 nM. As for `COc1nc(Nc2cn(C(F)(F)C(N)=O)nc2C)ncc1Br` [Compound D-183], the 50% inhibitory concentration (IC50) was under 30 nM. In turn, `COc1nc(Nc2cnn([C@H]3C[C@@H](n4nccn4)C3)c2C)ncc1Br` [Compound D-184] yielded an IC50 of under 30 nM. On the same count and under the same terms, as for `CNc1nc(Nc2cnn([C@H]3C[C@@H](n4nccn4)C3)c2C)ncc1Br` [Compound D-185], the figure is under 30 nM. `COc1nc(Nc2cnn([C@H]3C[C@H](n4nccn4)C3)c2C)ncc1Cl` [Compound D-186] came in with an IC50 of under 30 nM.

The molecule `CCNc1nc(Nc2cnn([C@H]3C[C@H](N4CCN(C)CC4)C3)c2C)ncc1C(F)(F)F` [Compound D-187] showed a half-maximal inhibitory concentration (IC50) of under 30 nM. Still for that read-out and setting: as for `CNc1nc(Nc2cnn([C@H]3C[C@@H](n4cc(F)cn4)C3)c2C)ncc1Br` [Compound D-192], the figure is under 30 nM. `CNc1nc(Nc2cnn([C@H]3C[C@H](n4cc(F)cn4)C3)c2C)ncc1Br` [Compound D-193] had an IC50 of under 30 nM. For `CCNc1nc(Nc2cnn([C@H]3C[C@@H](N4CCN(C)CC4)C3)c2C)ncc1C(F)(F)F` [Compound D-194], the IC50 is under 30 nM. For the molecule `CCNc1nc(Nc2cnn([C@H]3C[C@H](N4CC[C@H](F)C4)C3)c2C)ncc1C(F)(F)F` [Compound D-195], the IC50 is under 30 nM.

Molecule `CCNc1nc(Nc2cnn([C@H]3C[C@@H](N4CC[C@H](F)C4)C3)c2C)ncc1C(F)(F)F` [Compound D-196] showed a half-maximal inhibitory concentration (IC50) of under 30 nM. `CCNc1nc(Nc2cnn([C@H]3C[C@H](N4CC[C@@H](F)C4)C3)c2C)ncc1C(F)(F)F` [Compound D-197] yielded an IC50 of under 30 nM. `CCNc1nc(Nc2cnn([C@H]3C[C@@H](N4CC[C@@H](F)C4)C3)c2C)ncc1C(F)(F)F` [Compound D-198] registered an IC50 of under 30 nM. As to `CCNc1nc(Nc2cn(C(C)(C#N)CF)nc2C)ncc1C(F)(F)F` [Compound D-203], the IC50 is under 30 nM. For the molecule `CCNc1nc(Nc2cn(C(C#N)(CF)CF)nc2C)ncc1C(F)(F)F` [Compound D-204], the concentration for half-maximal inhibition (IC50) is under 30 nM. The same measure, in the same setting: as for `CCNc1nc(Nc2cn([C@H]3CCc4ncsc43)nc2C)ncc1C(F)(F)F` [Compounds D-86], the figure is under 30 nM; as for `CNc1nc(Nc2cn(C(C)COC(F)F)nc2C)ncc1C(F)(F)F` [Compounds D-96], under 30 nM. `CCNc1nc(Nc2cn(C3Cc4nccn4C3)nc2C)ncc1C(F)(F)F` [Compounds D-102] registered an IC50 of under 30 nM. As to `CNc1nc(Nc2cnn(C3CCC(n4nccn4)C3)c2C)ncc1C(F)(F)F` [Compounds D-107], the IC50 is under 30 nM. `CNc1nc(Nc2cnn([C@@H]3CCn4cncc43)c2C)ncc1C(F)(F)F` [Compounds D-121] came in with an IC50 of under 30 nM.

Regarding `CCNc1nc(Nc2cn([C@H]3CCn4nccc43)nc2C)ncc1C(F)(F)F` [Compounds D-122], the IC50 is under 30 nM. As to `CNc1nc(Nc2cnn([C@@H]3CCC(n4nccn4)C3)c2C)ncc1C(F)(F)F` (stereo partly drawn) [Compounds D-133], the half-maximal inhibitory concentration (IC50) is under 30 nM. The same measure, in the same setting: as for `CNc1nc(Nc2cnn([C@H]3CCC(n4nccn4)C3)c2C)ncc1C(F)(F)F` (stereo partly drawn) [Compounds D-134], the figure is under 30 nM; as for `CNc1nc(Nc2cnn([C@@H]3CCC(n4nccn4)C3)c2C)ncc1C(F)(F)F` (stereo partly drawn) [Compounds D-141], under 30 nM. `COc1nc(Nc2cnn([C@H]3CCn4ccnc43)c2C)ncc1C(F)(F)F` [Compounds D-142] yielded an IC50 of over 60 nM. Molecule `CNc1nc(Nc2cn([C@H]3CCC(n4ccnn4)C3)nc2C)ncc1C(F)(F)F` (stereo partly drawn) [Compounds D-143] returned an IC50 of 30 to 60 nM.

`CNc1nc(Nc2cnn([C@H]3CCC(n4nccn4)C3)c2C)ncc1C(F)(F)F` (stereo partly drawn) [Compounds D-149] yielded an IC50 of 30 to 60 nM. Turning to `CCNc1nc(Nc2cnn([C@H]3CCCn4ccnc43)c2C)ncc1C(F)(F)F` [Compounds D-151], the IC50 is under 30 nM.

`CCNc1nc(Nc2cnn([C@@H]3CCn4ccnc43)c2C)ncc1C(F)(F)F` [Compounds D-152]: the half-maximal inhibitory concentration (IC50) was under 30 nM. In turn, `CNc1nc(Nc2cnn([C@H]3CCC(n4nccn4)C3)c2C)ncc1C(F)(F)F` (stereo partly drawn) [Compounds D-156] returned an IC50 of under 30 nM. For the molecule `CCNc1nc(Nc2cn([C@H]3Cc4nccn4C3)nc2C)ncc1C(F)(F)F` [Compounds D-163], the half-maximal inhibitory concentration (IC50) is under 30 nM. For the molecule `CNc1nc(Nc2cnn([C@H]3CCn4cncc43)c2C)ncc1C(F)(F)F` [Compounds D-166], the IC50 was under 30 nM. `CCNc1nc(Nc2cnn([C@H]3CCCn4ccnc43)c2C)ncc1C(F)(F)F` [Compounds D-170] came in with a half-maximal inhibitory concentration (IC50) of under 30 nM. `CCNc1nc(Nc2cnn([C@H]3CCc4c(C)noc43)c2C)ncc1C(F)(F)F` [Compounds D-171]: the IC50 is under 30 nM. As to `CCNc1nc(Nc2cnn([C@H]3CCn4ccnc43)c2C)ncc1C(F)(F)F` [Compounds D-172], the concentration for half-maximal inhibition (IC50) is under 30 nM. On the same count and under the same terms, as for `CNc1nc(Nc2cnn([C@@H]3CCc4c(C)noc43)c2C)ncc1C(F)(F)F` [Compounds D-173], the figure is over 60 nM.

For the molecule `CNc1nc(Nc2cnn([C@H]3CCC(n4ccnn4)C3)c2C)ncc1C(F)(F)F` (stereo partly drawn) [Compounds D-175], the IC50 is under 30 nM.

In turn, `CNc1nc(Nc2cn(C3(C)CCn4ccnc43)nc2C)ncc1C(F)(F)F` [Compounds D-188] returned an IC50 of over 60 nM. With `CNc1nc(Nc2cn(C3(C)CCn4ccnc43)nc2C)ncc1C(F)(F)F` [Compounds D-189], the IC50 is under 30 nM. Same read-out and setting: for `CNc1nc(Nc2cnn([C@](C)(C#N)CF)c2C)ncc1C(F)(F)F` [Compounds D-190] the value was under 30 nM; for `CNc1nc(Nc2cnn([C@@](C)(C#N)CF)c2C)ncc1C(F)(F)F` [Compounds D-191], under 30 nM; for `CNc1nc(Nc2cnn([C@](C)(C#N)C(F)F)c2C)ncc1C(F)(F)F` [Compounds D-199], under 30 nM.
